Where two headings read alike, the source gives them in different places.
Key:
Assay type in all cases: cell-based
Aβ-42 = test: MSD Human (6E10) Ab 3-PLEX elisa, conditioned media of 2B7 cells: Aβ-42; settings: for IC50: Aβ-42 (superscript c)
Summary of the method: (§1)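 Each Aβ peptide was measured by MSD 6E10 3-plex electrochemiluminescence against its own seven-point standard curve. Samples were conditioned media from 2B7 cells exposed to compound for 5 hours at 37° C with 1% DMSO. Percent-vehicle values were fitted to a 4-parameter curve to give IC50.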

Aβ-40 = test: MSD Human (6E10) Ab 3-PLEX elisa, conditioned media of 2B7 cells: Aβ-40; settings: for inhibition at 20 µM / IC50: Homo sapiens; for IC50: Aβ-40 (superscript b)
Summary of the method: as §1

Aβ-38 = test: MSD Human (6E10) Ab 3-PLEX elisa, conditioned media of 2B7 cells: Aβ-38; settings: for IC50: Aβ-38 (superscript a); for inhibition at 20 µM: Aβ-38, 20 μM
Summary of the method: as §1

[1] = Homo sapiens, read-out: 50% reduction value
[2] = Homo sapiens, read-out: IC50 range

| Structure (SMILES) | inhibition at 20 µM (Aβ-40; Aβ-40, 20 μM) | IC50 (Aβ-38; [1]) | IC50 (Aβ-42; [1]) | IC50 (Aβ-42; [2]) | IC50 (Aβ-40; read-out: 50% reduction value) | IC50 (Aβ-38; [2]) | IC50 (Aβ-40; read-out: IC50 range) | also measured |
| --- | --- | --- | --- | --- | --- | --- | --- | --- |
| CC(C)CC(=O)OCC1C[C@@H](C)[C@H]2C(O1)[C@H](O)[C@@]1(C)C3CC[C@H]4C(C)(C)[C@@H](O[C@H]5CN(C6COC6)CCO5)CC[C@@]45C[C@@]35CC[C@]21C (some centres unmarked) | 25 to 75% | 1000 to 10000 nM | – | – | – | – | – | inhibition at 20 µM (Aβ-42; Homo sapiens, Aβ-42, 20 μM): 25 to 75% |
| COC(=O)OCC1C[C@@H](C)[C@H]2C(O1)[C@H](O)[C@@]1(C)C3CC[C@H]4C(C)(C)[C@@H](O)CC[C@@]45C[C@@]35CC[C@]21C (some centres unmarked) | 25 to 75% | – | – | – | – | – | – | inhibition at 20 µM (Aβ-42; Homo sapiens, Aβ-42, 20 μM): 25 to 75%; inhibition at 20 µM (Aβ-38; Homo sapiens): 25 to 75% |
| CC1CC(C(=O)C(C)(C)O)OC2C1C1(C)CCC34CC35CCC(O)C(C)(C)C5CCC4C1(C)C2O (centres unmarked) [drawing 1218] | – | – | – | – | – | – | – | % Inh. (range) (Aβ-42; Aβ-42, 20 μM): F (% inhibition of <25%); % Inh. (range) (Aβ-40; Aβ-40, 20 μM): E (% inhibition of 25-75%); IC50 (Aβ-38; read-out: 50% reduction value): 1000 to 10000 nM |
| CCO[C@@H](C1C[C@@H](C)[C@H]2C(O1)[C@H](O)[C@@]1(C)C3CC[C@H]4C(C)(C)C(OC(N)=O)CC[C@@]45C[C@@]35CC[C@]21C)C(C)(C)O (some centres unmarked) | – | < 1000 nM | < 1000 nM | < 1000 nM | 1000 to 10000 nM | – | – | – |
| CCO[C@@H]([C@H]1C[C@@H](C)[C@H]2[C@H](O1)[C@H](O)[C@@]1(C)C3CC[C@H]4C(C)(C)C(OC(=O)N5CCC5)CC[C@@]45C[C@@]35CC[C@]21C)C(C)(C)O (some centres unmarked) | – | < 1000 nM | < 1000 nM | < 1000 nM | – | 1000 to 10000 nM | – | % Inh. (range) (Aβ-40; Aβ-40, 20 μM): E/F^b (20 μM) |
| C=C(C)CO[C@@H](C1C[C@@H](C)[C@H]2C(O1)[C@H](O)[C@@]1(C)C3CC[C@H]4C(C)(C)C(O)CC[C@@]45C[C@@]35CC[C@]21C)C(C)(C)O (some centres unmarked) | – | < 1000 nM | < 1000 nM | < 1000 nM | 1000 to 10000 nM | < 1000 nM | 1000 to 10000 nM | – |
| CC(=O)OC(C(C)C)C1C[C@@H](C)[C@H]2C(O1)[C@H](O)[C@@]1(C)C3CC[C@H]4C(C)(C)[C@@H](O[C@H]5CNCCO5)CC[C@@]45C[C@@]35CC[C@]21C (some centres unmarked) | – | < 1000 nM | < 1000 nM | < 1000 nM | 1000 to 10000 nM | < 1000 nM | 1000 to 10000 nM | – |
| C[C@@H]1CC([C@H](Oc2ncccn2)C(C)(C)O)OC2C1[C@@]1(C)CC[C@@]34C[C@@]35CCC(O)C(C)(C)[C@@H]5CCC4[C@]1(C)[C@H]2O (some centres unmarked) | 25 to 75% | – | – | – | – | – | – | inhibition at 20 µM (Aβ-42; Homo sapiens, Aβ-42, 20 μM): 25 to 75%; inhibition at 20 µM (Aβ-38; Homo sapiens): 25 to 75% |
| CC(=O)O[C@@H]([C@H]1C[C@@H](C)C2C(O1)[C@H](O)[C@@]1(C)[C@@H]3CC[C@H]4C(C)(C)[C@@H](O)CC[C@@]45C[C@@]35CC[C@]21C)C(C)(C)O (some centres unmarked) [drawing 1231] | 25 to 75% | 1000 to 10000 nM | 1000 to 10000 nM | – | – | – | – | – |
| CC(=O)OC(C1CC(C)C2C(O1)C(O)C1(C)C3CCC4C(C)(C)C(OC5CN(S(C)(=O)=O)CCO5)CCC45CC35CCC21C)C(C)(C)O (centres unmarked) [drawing 1204] | – | – | – | – | – | – | – | IC50 (Aβ-42; read-out: 50% reduction value): < 1000 nM; IC50 (Aβ-42; read-out: IC50 range): < 1000 nM; % Inh. (range) (Aβ-40; Aβ-40, 100 μM): E^b (100 μM) (% inhibition of 25-75%); IC50 (Aβ-38; read-out: 50% reduction value): < 1000 nM |
| CCO[C@@H](C1C[C@@H](C)[C@H]2C(O1)[C@H](O)[C@@]1(C)C3CC[C@H]4C(C)(C)C(O[C@H]5CN(C6CCOCC6)CCO5)CC[C@@]45C[C@@]35CC[C@]21C)C(C)(C)O (some centres unmarked) | – | < 1000 nM | < 1000 nM | < 1000 nM | 1000 to 10000 nM | < 1000 nM | 1000 to 10000 nM | – |
| CC(=O)N1CCN(C(=O)OC2CC[C@]34C[C@]35CC[C@]3(C)[C@@H]6C(OC([C@H](OC(=O)N7CCC7)C(C)C)C[C@H]6C)[C@H](O)[C@@]3(C)C5CC[C@H]4C2(C)C)CC1 (some centres unmarked) | – | < 1000 nM | < 1000 nM | < 1000 nM | 1000 to 10000 nM | < 1000 nM | 1000 to 10000 nM | – |
| CCO[C@@H](C1C[C@@H](C)[C@H]2C(O1)[C@H](O)[C@@]1(C)C3CC[C@H]4C(C)(C)C(OC(=O)N5CC[C@H](C(=O)O)C5)CC[C@@]45C[C@@]35CC[C@]21C)C(C)(C)O (some centres unmarked) | – | 1000 to 10000 nM | < 1000 nM | < 1000 nM | > 10000 nM | – | – | – |

Source: US20110251379A1, “COMPOUNDS USEFUL FOR TREATING NEURODEGENERATIVE DISORDERS” (Satori Pharmaceuticals, Inc., priority 2010, published 2011)
